Structures can show the parent of a compound that is named as a salt.

For the first test, the system named is homocysteine synthesis. Briefly: Measurement of homocysteine synthesis inhibitory activity in vivo (methionine-loaded mouse, plasma homocysteine). Particulars: dose of 10 mg/kg, oral, BALB/c mouse; methionine water 1 hr later; plasma 30 min after; read-out: activity (homocysteine synthesis inhibitory rate). The procedure: A sample was orally administered to BALB/c mouse and, 1 hr later, methionine water (50 g/L) was orally administered at a proportion of 10 ml/kg. 30 min later, blood samples were collected with heparin from the abdominal vein and plasma was obtained. The plasma homocysteine concentration was measured by treating the plasma with tributylphosphine, removing protein with 10% trichloroacetic acid (TCA), fluorescent labeling the supernatant with 4-fluoro-7-sulfobenzofurazan ammonium salt (SBD-F) under alkali conditions, and quantifying by HPLC. The homocysteine synthesis inhibitory rate of the sample was determined with the difference in the homocysteine value between methionine water-loaded animal and methionine water-unloaded animal as 100%. The detailed conditions of HPLC were as follows.
column used: Wakopak^R HandyODS 150*4.6 mm (Wako Pure Chemical Industries, Ltd.) elution condition: 1.0 ml/min elution solvent: 0.1M phosphate buffer (pH 6.0) 2% methanol wavelength: ex 385 nm em 515 nm
`CCNCCNC(=O)CN(CC(=O)N(C)N1Cc2ccccc2C1)c1cc(C(C)=O)ccc1C` [57 (2HCl salt)]: the inhibition in vivo at 10 mg/kg is at least 40%.

For `Cc1nnc(-c2ccc(C)c(N(CC(=O)NCCNC(C)C)CC(=O)N(C)N3Cc4ccccc4C3)c2)s1` [Example 105, N^2-{2-[1,3-dihydro-2H-isoindol-2-yl(methyl)amino]-2-oxoethyl}-N^2-[2-methyl-5-(5-methyl-1,3,4-thiadiazol-2-yl)phenyl]-N^1-[2-(isopropylamino)ethyl]glycinamide dihydrochloride], the inhibition in vivo at 10 mg/kg was 20 to 40%.

Consider `CCNCCNC(=O)CN(CC(=O)N(C)N1Cc2ccccc2C1)c1ccc(-c2cnn(C)c2)cc1C` [Example 136, N^2-{2-[1,3-dihydro-2H-isoindol-2-yl(methyl)amino]-2-oxoethyl}-N^2-[2-methyl-4-(1-methyl-1H-pyrazol-4-yl)phenyl]-N^1-[2-(ethylamino)ethyl]glycinamide trihydrochloride], for which the inhibition in vivo at 10 mg/kg is at least 40%.

For the molecule `CCNCCNC(=O)CN(CC(=O)N(C)N1Cc2ccc(F)cc2C1)c1cc2cn(C)nc2cc1C` [Example 245, N^2-(2,6-dimethyl-2H-indazol-5-yl)-N^2-{2-[(5-fluoro-1,3-dihydro-2H-isoindol-2-yl)(methyl)amino]-2-oxoethyl}-N^1-[2-(ethylamino)ethyl]glycinamide hydrochloride], the inhibition in vivo at 10 mg/kg fell in the range of 20 to 40%.

As to `CCNCCNC(=O)CN(CC(=O)N(C)N1Cc2ccc(F)cc2C1)c1cc2cn(CC(F)F)nc2cc1C` [Example 254, N^2-[2-(2,2-difluoroethyl)-6-methyl-2H-indazol-5-yl]-N^2-{2-[(5-fluoro-1,3-dihydro-2H-isoindol-2-yl)(methyl)amino]-2-oxoethyl}-N^1-[2-(ethylamino)ethyl]glycinamide hydrochloride], the inhibition in vivo at 10 mg/kg is 20 to 40%.

The next test deals with T1, Human-recombinant-S-Adenosyl-L-Homocysteine Hydrolase (Homo sapiens, UniProt P23526).
T1 construct: purchased Diazyme Laboratories
T1 sequence (P23526 whole entry): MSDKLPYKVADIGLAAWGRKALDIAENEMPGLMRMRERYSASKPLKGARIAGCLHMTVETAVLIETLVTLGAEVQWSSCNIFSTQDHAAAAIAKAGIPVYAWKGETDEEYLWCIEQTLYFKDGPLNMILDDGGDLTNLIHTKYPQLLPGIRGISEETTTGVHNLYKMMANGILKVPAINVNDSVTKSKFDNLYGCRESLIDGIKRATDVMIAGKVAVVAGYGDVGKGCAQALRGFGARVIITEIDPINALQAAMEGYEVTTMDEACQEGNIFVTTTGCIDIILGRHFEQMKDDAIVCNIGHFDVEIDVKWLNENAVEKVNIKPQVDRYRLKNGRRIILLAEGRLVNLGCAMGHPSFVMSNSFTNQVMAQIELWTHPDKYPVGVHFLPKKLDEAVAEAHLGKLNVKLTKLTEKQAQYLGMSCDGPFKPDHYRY
Briefly: Measurement of enzyme inhibitory activity (hydrolysis of S-Adenosyl-L-Homocysteine, HPLC). The format is biochemical. As to conditions: S-Adenosyl-L-Homocysteine 10 μM, pH 7.2, 37° C., 15 min. The procedure:
The enzyme inhibitory activity of the compounds of the Examples was measured using the hydrolysis activity of S-Adenosyl-L-Homocysteine as an index. The measurement method was modification of the method of Henry H. Richards et al. (J. Biol. Chem. 253, 4476-4480, 1978). That is, S-Adenosyl-L-Homocysteine (10 μM) and Adenosine Deaminase (Roche) (4 units) were added to 50 mM phosphate buffer (pH 7.2, containing 1 mM EDTA) with the total amount being 200 μl, and to the solution were added a test substance and then Human-recombinant-S-Adenosyl-L-Homocysteine Hydrolase (50 ng, Diazyme Laboratories) to start the reaction, and the mixture was incubated at 37° C. for 15 min. The reaction was quenched by the addition of 1N aqueous perchloric solution (20 μl), and the mixture was centrifuged under the conditions of 10000 rpm, 5 min, 4° C. The supernatant was collected, and the amount of S-Adenosyl-L-Homocysteine after the reaction was quantified by HPLC. The column used was a reversed-phase column. The detailed conditions of HPLC were as follows.
column used: Wakopak^R HandyODS 150*4.6 mm (Wako Pure Chemical Industries, Ltd.) elution condition: 1.0 ml/min elution solvent: 0.1M acetate buffer (pH 4.0) containing 10 mM 1-heptanesulfonic acid containing 4% acetonitrile wavelength: 258 nm (UV) The inhibitory rate was determined with the amount of decrease in S-Adenosyl-L-Homocysteine before and after the reaction without using the test substance as 100%.
Inhibitory rate (%)={(amount of decrease of S-Adenosyl-L-Homocysteine in the presence of test substance)/(amount of decrease of S-Adenosyl-L-Homocysteine in the absence of test substance)}×100
For `Cc1cc2c(cnn2C)cc1N(CC(=O)NCCNC(C)C)CC(=O)N(C)N1Cc2ccccc2C1` [Example 242, N^2-{2-[1,3-dihydro-2H-isoindol-2-yl(methyl)amino]-2-oxoethyl}-N^2-(1,6-dimethyl-1H-indazol-5-yl)-N^1-[2-(isopropylamino)ethyl]glycinamide hydrochloride], the IC50 was 6 nM.

Take `CCNCCNC(=O)CN(CC(=O)N(C)N1Cc2ccccc2C1)c1cc2cn(C)nc2cc1C` [Example 243, N^2-{2-[1,3-dihydro-2H-isoindol-2-yl(methyl)amino]-2-oxoethyl}-N^2-(2,6-dimethyl-2H-indazol-5-yl)-N^1-[2-(ethylamino)ethyl]glycinamide hydrochloride]: the IC50 was found to be 7 nM.

Turning to `CCNCCNC(=O)CN(CC(=O)N(C)N1Cc2ccccc2C1)c1cc2cn(CC)nc2cc1C` [Example 247, N^2-{2-[1,3-dihydro-2H-isoindol-2-yl(methyl)amino]-2-oxoethyl}-N^2-(2-ethyl-6-methyl-2H-indazol-5-yl)-N^1-[2-(ethylamino)ethyl]glycinamide hydrochloride], the concentration for half-maximal inhibition (IC50) was determined as 15 nM.

As for `CCNCCNC(=O)CN(CC(=O)N(C)N1Cc2ccc(F)cc2C1)c1cc2c(C)nn(C)c2cc1C` [Example 256, N^2-{2-[(5-fluoro-1,3-dihydro-2H-isoindol-2-yl)(methyl)amino]-2-oxoethyl}-N^2-(1,3,6-trimethyl-1H-indazol-5-yl)-N^1-[2-(ethylamino)ethyl]glycinamide hydrochloride], the half-maximal inhibitory concentration (IC50) amounted to 47 nM.

For the molecule `CCNCCNC(=O)CN(CC(=O)N(C)N1Cc2ccc(F)cc2C1)c1cc2c(cnn2C)cc1C` [Example 259, N^2-(1,5-dimethyl-1H-indazol-6-yl)-N^2-{2-[(5-fluoro-1,3-dihydro-2H-isoindol-2-yl)(methyl)amino]-2-oxoethyl}-N^1-[2-(ethylamino)ethyl]glycinamide hydrochloride], the half-maximal inhibitory concentration (IC50) is 30 nM.

`CCNCCNC(=O)CN(CC(=O)N(C)N1Cc2ccc(F)cc2C1)c1cc2c(cc1C)c(CC)nn2CC(F)F` [Example 279, N^2-[1-(2,2-difluoroethyl)-3-ethyl-5-methyl-1H-indazol-6-yl]-N^2-{2-[(5-fluoro-1,3-dihydro-2H-isoindol-2-yl)(methyl)amino]-2-oxoethyl}-N^1-[2-(ethylamino)ethyl]glycinamide hydrochloride]: the IC50 stood at 66 nM.

With `CCNCCNC(=O)CN(CC(=O)N(C)N1Cc2ccccc2C1)c1cc2c(cc1C)CN(CC)C2=O` [Example 284, N^2-{2-[1,3-dihydro-2H-isoindol-2-yl(methyl)amino]-2-oxoethyl}-N^2-(2-ethyl-6-methyl-3-oxo-2,3-dihydro-1H-isoindol-5-yl)-N^1-[2-(ethylamino)ethyl]glycinamide dihydrochloride], the IC50 was 33 nM.

`CCNCCNC(=O)CN(CC(=O)N(C)N1Cc2ccccc2C1)c1cc(-c2noc(C(F)(F)F)n2)ccc1C` [Example 287, N^2-{2-[1,3-dihydro-2H-isoindol-2-yl(methyl)amino]-2-oxoethyl}-N^2-{2-methyl-5-[5-(trifluoromethyl)-1,2,4-oxadiazol-3-yl]phenyl}-N^1-[2-(ethylamino)ethyl]glycinamide dihydrochloride]: the IC50 came out at 58 nM.

`CCNCCNC(=O)CN(CC(=O)N(C)N1Cc2ccccc2C1)c1ccc(-c2noc(C(F)(F)F)n2)cc1C` [Example 289, N^2-{2-[1,3-dihydro-2H-isoindol-2-yl(methyl)amino]-2-oxoethyl}-N^2-{2-methyl-4-[5-(trifluoromethyl)-1,2,4-oxadiazol-3-yl]phenyl}-N^1-[2-(ethylamino)ethyl]glycinamide dihydrochloride]: the IC50 came to 76 nM.

Consider `CCNCCNC(=O)CN(CC(=O)N(C)N1Cc2ccccc2C1)c1ccc(N2CCCC2=O)cc1C` [Example 298, N^2-{2-[1,3-dihydro-2H-isoindol-2-yl(methyl)amino]-2-oxoethyl}-N^2-[2-methyl-4-(2-oxopyrrolidin-1-yl)phenyl]-N^1-[2-(ethylamino)ethyl]glycinamide dihydrochloride], for which the 50% inhibitory concentration (IC50) was 50 nM.

On to `CCNCCNC(=O)CN(CC(=O)N(C)N1Cc2ccccc2C1)c1ccc(-c2ccc(C(N)=O)cn2)cc1C` [Example 301, N^2-{4-[5-(aminocarbonyl)pyridin-2-yl]-2-methylphenyl}-N^2-{2-[1,3-dihydro-2H-isoindol-2-yl(methyl)amino]-2-oxoethyl}-N^1-[2-(ethylamino)ethyl]glycinamide dihydrochloride], for which the IC50 came out at 37 nM.

Regarding `CCNCCNC(=O)CN(CC(=O)N(C)N1Cc2ccccc2C1)c1ccc(-n2cc(C(N)=O)cn2)cc1C` [Example 303, N^2-{4-[4-(aminocarbonyl)-1H-pyrazol-1-yl]-2-methylphenyl}-N^2-{2-[1,3-dihydro-2H-isoindol-2-yl(methyl)amino]-2-oxoethyl}-N^1-[2-(ethylamino)ethyl]glycinamide dihydrochloride], the IC50 came to 41 nM.

On to `CCNCCNC(=O)CN(CC(=O)N(C)N1Cc2ccc(F)cc2C1)c1ccc(-c2nc(C(N)=O)cs2)cc1C` [Example 308, N^2-{4-[4-(aminocarbonyl)-1,3-thiazol-2-yl]-2-methylphenyl}-N^2-{2-[(5-fluoro-1,3-dihydro-2H-isoindol-2-yl)(methyl)amino]-2-oxoethyl}-N^1-[2-(ethylamino)ethyl]glycinamide dihydrochloride], for which the half-inhibitory concentration (IC50) is 26 nM.

Take `CCNCCNC(=O)CN(CC(=O)N(C)N1Cc2ccccc2C1)c1ccc(-c2nc(C(N)=O)co2)cc1C` [Example 309, N^2-{4-[4-(aminocarbonyl)-1,3-oxazol-2-yl]-2-methylphenyl}-N^2-{2-[1,3-dihydro-2H-isoindol-2-yl(methyl)amino]-2-oxoethyl}-N^1-[2-(ethylamino)ethyl]glycinamide dihydrochloride]: the 50% inhibitory concentration (IC50) was 23 nM.

In the case of `Cc1cc2onc(C)c2cc1N(CC(=O)NC[C@@H]1CCCN1)CC(=O)N(C)N1Cc2ccccc2C1` [Example 328, N^2-{2-[1,3-dihydro-2H-isoindol-2-yl(methyl)amino]-2-oxoethyl}-N^2-(3,6-dimethyl-1,2-benzisoxazol-5-yl)-N^1-[(2S)-pyrrolidin-2-ylmethyl]glycinamide dihydrochloride], the IC50 stood at 150 nM.

What is called IC50 is the concentration at which inhibition is half-maximal.

The values are drawn from US20120196824A1, “THERAPEUTIC AGENT FOR CEREBRAL INFARCTION” (MITSUBISHI TANABE PHARMA CORPORATION, priority 2009, published 2012).
